Common to all, as to assay: DTP human tumour cell line panel, 48 h
Experiment [1] relates to HCT-15 colon.
The test system of experiment [2] is DMS 273 small cell lung.
Experiment [3] relates to HL-60(TB) leukemia.
Experiment [4] relates to NCI-H23 lung.
Experiment [5] concerns NCI-H226 lung.
The test system of experiment [6] is UACC-257 melanoma.
The test system of experiment [7] is HCT-116 colon.
Experiment [8] concerns M19-MEL melanoma.
The test system of experiment [9] is M14 melanoma.
The test system of experiment [10] is PC-3 prostate.

Each structure is given as a SMILES string. “And” between values parts separate entries of the source, which are not always exact repeats. Equal values may be shown once.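 Exposure lasted 48 hours, with cells grown in 96-well plates and compounds tested at five concentrations. GI50: concentration for 50% inhibition of growth. Definition used: TGI = concentration required for complete inhibition of growth.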

The term TGI denotes the concentration giving total growth inhibition. Turning to `N#Cc1cc([N+](=O)[O-])ccc1NC(=O)C(=O)Nc1n[nH]c(N)n1`, the TGI in experiment [1], in experiment [2], in experiment [3], in [4], in experiment [5] and in [6] was greater than 100 µM each time. The TGI in [7], in [8] and in experiment [9] was greater than 100 µM throughout.

Take `CC(=O)CNC(=O)OC(C)(C)C`: the TGI in [2], in experiment [3], in experiment [4], in experiment [5], in experiment [6] and in experiment [7] was greater than 100 µM in each case. The TGI in experiment [8] and in [9] was greater than 100 µM throughout.

As to `C/C(CC(=O)Nc1ccc(C)cc1C)=N/N=C(N)N`, the TGI in experiment [2], in experiment [3], in experiment [4], in [5], in experiment [6] and in experiment [7] was greater than 100 µM each time. Also, the TGI in experiment [8] and in experiment [9] was greater than 100 µM each time.

In the case of `COC12C=C(C)C(CC1)CC2C(=O)O` (stereo unspecified), the TGI in [1], in [2], in [3], in experiment [4], in experiment [5] and in experiment [6] was greater than 100 µM throughout. For the same molecule, the TGI in experiment [7], in [8] and in experiment [9] was greater than 100 µM each time.

For the molecule `O=C(/N=N/C(=O)OCc1ccccc1)OCc1ccccc1`, the TGI in [1], in experiment [2], in [3], in experiment [4], in [6] and in [7] was greater than 100 µM throughout. Also, the TGI in experiment [8] and in [9] was greater than 100 µM throughout.

In the case of `COc1ccc(/C=C/CN(C)CCc2ccccc2)cc1OC`, the TGI in [1], in experiment [2], in experiment [4], in experiment [5], in experiment [6] and in experiment [7] was greater than 100 µM in each case. Also, in experiment [8], the TGI was greater than 100 µM.

As to `COc1ccc(C2=CC3CCC2C3)cc1` (stereo unspecified), the TGI in experiment [1], in experiment [2], in experiment [3], in experiment [4], in experiment [6] and in experiment [7] was greater than 100 µM each time. In experiment [9], the TGI was greater than 100 µM.

As to `CC(C)(C)C1C=C(Sc2ccccc2)C(=O)O1` (stereo unspecified), the TGI in experiment [1] was greater than 100 µM; in experiment [2] it was greater than 100 µM; in experiment [3] it was 55.7 µM; in experiment [4], greater than 100 µM; in experiment [5], greater than 100 µM; in [6] it was greater than 100 µM. Further, the TGI in [7], in experiment [8] and in experiment [9] was greater than 100 µM in each case.

Usually GI50 stands for the concentration at which growth is held to half of that of the control. For `[Cl-].[Dy+3].[O-]/N=C(\c1ccccc1)c1ccccn1.[O-]/N=C(\c1ccccc1)c1ccccn1.[O-]/N=C(\c1ccccc1)c1ccccn1`, the GI50 in experiment [1] was 37 µM; in experiment [2], 29.8 µM; in experiment [3], 18.4 µM; in [4], 37.2 µM; in experiment [5], 17.3 µM; in [6], 24.5 µM. The GI50 in experiment [7] was 49.8 µM; in experiment [8], 31.3 µM; in [9], 22.1 µM. For the same molecule, the TGI in experiment [1] was greater than 100 µM; in experiment [2] it was greater than 100 µM; in experiment [3], 58.4 µM; in experiment [4], greater than 100 µM; in experiment [5] it was 58.4 µM; in [6], 67.8 µM. Besides, the TGI was greater than 100 µM in experiment [7], 94.6 µM in [8] and 43.1 µM in [9].

Regarding `CCc1ccc(/C=C\c2cc(OC)c(OC)c(OC)c2)cc1`, the GI50 in [1] is 0.0327 µM; in [3] it was 0.0172 µM; in experiment [4], 0.039 µM; in experiment [6], 0.0802 µM; in [7], 0.0187 µM; in [8], 0.0392 µM. Also, the GI50 in experiment [9] is 0.0168 µM. The TGI in [2] is 0.994 µM; in [4], 0.338 µM and 0.114 µM; in experiment [5] it was 0.0792 µM; in experiment [6] it was 72.1 µM; in experiment [7], 0.464 µM and 1.18 µM; in experiment [8], greater than 100 µM. In experiment [9], this molecule had a TGI of 19.9 µM.

For `CC1=NN(C(=O)Nc2ccccc2)C(=O)C2CCC(=O)N12` (stereo unspecified), the TGI in [1], in [2], in experiment [3], in experiment [4], in [6] and in [7] was greater than 100 µM throughout. Also, the TGI in experiment [8] and in experiment [9] was greater than 100 µM in each case.

Regarding `COC(=O)c1c/c(=N\NC(=O)CC(=O)Nc2ccccc2OC)c2ccccc2o1`, the TGI in experiment [1], in experiment [2], in experiment [3], in experiment [4], in [5] and in [7] was greater than 100 µM in each case. The TGI in experiment [8] and in experiment [9] was greater than 100 µM each time.

With `CCCCN=C(NC#N)NCCCC`, the TGI in experiment [1], in [2], in experiment [4], in experiment [5], in experiment [6] and in experiment [7] was greater than 100 µM in each case. Moreover, the TGI in experiment [8] and in [9] was greater than 100 µM each time.

In the case of `CCOC(=O)[C]1([Bi]([CH3])[CH3])N=NC(C(=O)OC)=C1C(=O)OC` (stereo unspecified), the GI50 in experiment [1] is 20.7 µM; in experiment [2], 22.5 µM; in experiment [3], 21.2 µM; in [4] it was 18 µM; in experiment [5], 20.6 µM; in experiment [8] it was 17.6 µM. Moreover, the GI50 in experiment [9] is greater than 10 µM. Further, the TGI in experiment [1] is 49.6 µM; in experiment [2], 59.1 µM; in experiment [3], 52.1 µM; in [4], 35 µM; in experiment [5] it was 41.4 µM; in experiment [8] it was 32.5 µM. Further, the TGI in [9] is greater than 10 µM.

`C/C(CC(=O)Nc1cc(Cl)c(Cl)cc1Cl)=N\NC(N)=O`: the TGI in [2], in experiment [3], in experiment [4], in [5], in experiment [6] and in experiment [7] was greater than 100 µM throughout. Besides, the TGI in experiment [8] and in experiment [9] was greater than 100 µM throughout.

In the case of `COC(=O)[C@]12CC[C@@H](C)[C@H](C)[C@@H]1C1=CC[C@@H]3[C@@]4(C)C/C(=N\O)[C@H](O)[C@@]5(C)COC(=C45)C[C@@]3(C)[C@]1(C)CC2`, the GI50 in experiment [1] is 5.47 µM; in experiment [10], 2.34 µM; in experiment [3], 3.64 µM; in experiment [4] it was 6.89 µM; in [5] it was 14.8 µM; in [6], 18.6 µM. In addition, the GI50 in [7] is 2.42 µM; in experiment [9] it was 14.2 µM. Besides, the TGI in experiment [1] was 17.7 µM; in [10] it was 6.51 µM; in [3], 13.2 µM; in experiment [4], 22.3 µM; in experiment [5], 33.5 µM; in [6], 34.5 µM. For the same molecule, the TGI in experiment [7] amounted to 7.11 µM; in experiment [9], 27.7 µM.

Turning to `Cc1ccc(NC(=O)c2cccc(N(C)C)c2)cc1NC(=O)c1ccc(O)cc1`, the GI50 in [1] is 53.3 µM; in experiment [10], greater than 61.7 µM; in experiment [3], 46.3 µM; in experiment [4] it was greater than 61.9 µM; in experiment [5], greater than 71.4 µM; in experiment [6], greater than 68.2 µM. For the same molecule, the GI50 in experiment [7] was greater than 59.4 µM; in [9], greater than 64.6 µM. Also, the TGI in experiment [1], in experiment [10], in experiment [3], in experiment [4], in experiment [5] and in experiment [6] was greater than 100 µM in each case. Moreover, the TGI in [7] and in experiment [9] was greater than 100 µM throughout.

For the molecule `COc1ccc(-c2cc(=O)c3ccc(O)cc3o2)cc1OC`, the TGI in [1], in experiment [10], in experiment [3], in experiment [4], in [5] and in [6] was greater than 100 µM each time. For the same molecule, the TGI in experiment [7] and in experiment [9] was greater than 100 µM in each case.

Take `Cc1ccc2c(c1)[n+]([O-])c(N)n[n+]2[O-]`: the TGI in experiment [1], in [10], in experiment [3], in experiment [4], in [5] and in experiment [6] was greater than 100 µM throughout. Besides, the TGI in [7] and in experiment [9] was greater than 100 µM each time.

For `O=C1/C(=C/c2ccccc2)CNC/C1=C\c1ccccc1`, the TGI in experiment [1] turned out to be 2.76 µM; in [2] it was 2 µM; in experiment [4], 4.27 µM; in [5] it was 6.18 µM; in experiment [6], 10.6 µM; in [7], 0.415 µM. In addition, the TGI in experiment [8] was determined as 2.72 µM; in [9] it was 3.56 µM.

Turning to `CN1CCN(C(=O)OCc2nc3c(N4CCOCC4)nc(Cl)nc3n2C)CC1`, the GI50 in experiment [1] was 0.905 µM; in experiment [10] it was 1.33 µM; in experiment [3], 0.65 µM; in [4], 1.55 µM; in [5] it was 1.96 µM; in [6], 1.39 µM. Further, the GI50 in experiment [7] is 0.343 µM; in experiment [9], 1.19 µM. Moreover, the TGI in experiment [1] turned out to be 2.79 µM; in [10] it was 2.92 µM; in [3] it was 3.28 µM; in [4], 3.3 µM; in experiment [5] it was 5.41 µM; in experiment [6], 3.22 µM. The TGI in [7] came to 1.62 µM; in [9], 2.65 µM.

Turning to `NC(CCC(=O)NC(CSSCCCCS(=O)O)C(=O)NCC(=O)O)C(=O)O` (stereo unspecified), the TGI in experiment [1], in experiment [2], in experiment [4], in experiment [6], in [7] and in [8] was greater than 100 µM each time. This molecule also had a TGI in experiment [9] greater than 100 µM.

Regarding `CSC(C1c2ccccc2N(c2ccc(C)cc2)C2=NC(=O)N(C)C(=O)C21Cl)S(=O)(=O)c1ccc(C)cc1` (stereo unspecified), the TGI amounted to 47.9 µM in [2]; 12.6 µM in [3]; 46.9 µM in experiment [4]; 48.7 µM in experiment [5]; 57.2 µM in experiment [6]; 25.7 µM in experiment [7]. Also, the TGI is 69.2 µM in experiment [8] and 72.3 µM in experiment [9].

As to `COc1ccc(/C(COc2c(-c3ccccc3)oc3ccccc3c2=O)=N\O)cc1`, the GI50 in experiment [1] is 19.5 µM; in [10], 13.4 µM; in [3] it was 20 µM; in experiment [4] it was 24.2 µM; in experiment [5], 20.8 µM; in experiment [6], 17.8 µM. Moreover, the GI50 in experiment [7] is 21.8 µM; in experiment [9] it was 28.3 µM. Further, the TGI in [1] was greater than 50 µM; in [10] it was 35.5 µM; in experiment [3], greater than 50 µM; in experiment [4], greater than 50 µM; in experiment [5] it was greater than 50 µM; in experiment [6], greater than 50 µM. Also, the TGI in [7] and in experiment [9] was greater than 50 µM each time.

On to `O=C(N/N=C/c1ccccc1O)c1ccccc1Nc1ccnc(C(F)(F)F)c1`, for which the GI50 in experiment [1] is 0.177 µM; in experiment [10], 0.295 µM; in experiment [3], 0.293 µM; in [4], 1.33 µM; in experiment [5], 1.08 µM; in experiment [6], 0.396 µM. In addition, the GI50 in experiment [7] is 0.414 µM; in [9], 0.497 µM. Further, the TGI in experiment [1] is greater than 100 µM; in [10], 10.1 µM; in [3] it was 1.69 µM; in experiment [4] it was greater than 44.9 µM; in experiment [5], 12.1 µM; in experiment [7] it was 20.9 µM. Also, in experiment [9], the TGI came to 3.76 µM.

The record behind these values is PubChem BioAssay (NCI).
